From paper PMC9145865, “Effects of Rare Phytocannabinoids on the Endocannabinoid System of Human Keratinocytes” (International Journal of Molecular Sciences, 2022)

Columns and labels:
[1] = system: NAPE-PLD; experiment: qRT-PCR gene expression of NAPE-PLD; format: cell-based, human; details: HaCaT cells, half-IC50 dose, 24 h, vs. control
Protocol: (§1) The HaCaT cells were seeded into 6-well plates at a density of 4 × 10^4 per well, incubated overnight and then treated with the selected pCBs (CBG (6.0 µM), CBC (4.0 µM), THCV (9.0 µM) and CBGA (13.0 µM)) for 24 h. The cell pellets were collected and RT-PCR reactions were performed using the RevertAid H Minus First Strand cDNA Synthesis Kit. The relative abundance was assessed via RT quantitative PCR (RT-qPCR) using the SensiFAST SYBR Lo-ROX Kit in an Applied Biosystems 7500 Fast Real-Time PCR System (Life Technologies). To provide the precise quantification of the initial target in each PCR reaction, the amplification plot was examined, as well as the point of early log phase of the product accumulation, which was defined by assigning a fluorescence threshold above the background that was defined as the threshold cycle number or “Ct. Differences” in threshold cycle number that was used to quantify the relative amount of the PCR targets that were contained within each tube. After PCR, a dissociation curve (melting curve) was constructed in the range of 60 °C to 95 °C [62] to evaluate the specificity of the amplification products. The relative expression of the different amplicons was calculated using the delta–delta Ct (ΔΔCt) method and then converted into the relative expression ratio (2^−ΔΔCt) for statistical analysis. […]

[2] = system: DAGLβ; experiment: Western blot protein expression of DAGLβ; format: cell-based, human; details: HaCaT cells, half-IC50 dose, 24 h, vs. control
Protocol: The HaCaT cells were seeded into 6-well plates at a density of 4 × 10^4 per well, incubated overnight and then treated with the selected pCBs (6.0 µM of CBG, 4.0 µM of CBC, 9.0 µM of THCV and 13.0 µM of CBGA) for 24 h. The cell pellets were collected and then lysed in an ice-cold lysis buffer (10 mM of EDTA, 50 mM of pH 7.4 Tris–HCl, 150 mM of sodium chloride, 1% Triton-X-100, 2 mM of phenylmethylsulfonyl fluoride, 2 mM of sodium orthovanadate, […] of leupeptin and […] of aprotinin). The amount of protein was determined using the Bio-Rad Protein assay (Bio-Rad Laboratories, Hemel Hempstead, UK). An equal amount of protein (60 µg) was loaded onto 10% sodium dodecyl sulfate–polyacrylamide gels and blotted onto polyvinylidene fluoride sheets (Amersham Biosciences, Piscataway, NJ, USA). The membranes were blocked with dried 5% non-fat milk for 1 h and then incubated with suitable primary antibodies. Detection was performed using Azure Biosystems c400 (Dublin, CA, USA). The membranes were stripped using the Restore Western Blot Stripping Buffer from Thermo Fisher Scientific (Waltham, MA, USA) for 30 min under agitation at room temperature, according to the manufacturer’s instructions. The primary antibodies (Table 6) that were used were obtained from the following sources: […]

[3] = system: CB1; details: in vivo and in vitro; ref [53]; cited from earlier work
[4] = system: 2-AG; experiment: Endogenous 2-AG content by UHPLC-MS/MS; format: cell-based, human; details: HaCaT cells, half-IC50 dose, 24 h, vs. control
Protocol: (§2) The HaCaT cells were seeded into 6-well plates at a density of 4 × 10^4 per well, incubated overnight and then treated with the selected pCBs (6.0 µM of CBG, 4.0 µM of CBC, 9.0 µM of THCV and 13.0 µM of CBGA) for 24 h. The analytical standards that were used were N-arachidonoylethanolamine (AEA), N-arachidonoylethanolamine-d8 (AEA-d8), 2-arachidonoylglicerol (2-AG), 2-arachidonoylglicerol-d8 (2-AG-d8), N-palmitoylethanolamine (PEA) and […] (PEA-d4). The lipid fraction from these cells was extracted using chloroform–methanol–water (2:1:1 v/v) in the presence of ISs (1 ng/mL^−1 of AEA-d8, 100 ng mL^−1 of 2-AG-d8 and 1 ng mL^−1 of PEA-d4). The organic phase was dried under gentle nitrogen stream and then subjected to a micro-solid phase extraction (µSPE) procedure for a rapid clean-up using OMIX C18 tips from Agilent Technologies (Santa Clara, CA, USA). All analyses were performed using a Nexera XR LC 20 AD UHPLC system (Shimadzu Scientific Instruments, USA) that was equipped with Kinetex XB-C18 1.7 µm 100 × 2.1 mm from Phenomenex (Torrance, CA, USA) (for the LC parameters, see Figure S5) and coupled with a 4500 Qtrap from Sciex (Toronto, ON, Canada) that was equipped with a Turbo V electrospray ionization (ESI) source (the MS/MS parameters are shown in Table S1). The levels of AEA, 2-AG and PEA were then calculated as pmoles per 10^6 cells, as reported in [60].

[5] = system: PEA; experiment: Endogenous PEA content by UHPLC-MS/MS; format: cell-based, human; details: HaCaT cells, half-IC50 dose, 24 h, vs. control
Protocol: as §2

[6] = system: transformed human keratinocytes; set-up: method as in PMID 17157480; details: hyperproliferative conditions; ref [46]; cited from earlier work
[7] = system: FAAH; experiment: qRT-PCR gene expression of FAAH; format: cell-based, human; details: HaCaT cells, half-IC50 dose, 24 h, vs. control
Protocol: as §1

[8] = system: NAPE-PLD; experiment: NAPE-PLD activity assay in homogenates of treated cells; format: cell-based, human; details: HaCaT cells, half-IC50 amount, 24 h, vs. control
Protocol: NAPE-PLD: The HaCaT cells were seeded into 6-well plates at a density of 4 × 10^4 per well, incubated overnight and then treated with the selected pCBs (6.0 µM of CBG, 4.0 µM of CBC, 9.0 µM of THCV and 13.0 µM of CBGA) for 24 h. The cell pellets were collected and NAPE-PLD activity was determined in the homogenates of the cells after 24 h of treatment with each pCB. Then, the homogenates were incubated in a reaction mixture that contained 50 mM of Tris–HCl, 0.05% Triton X-100 pH 8.0 and 10 µM of fluorogenic substrate PED6 (N-((6-(2,4-Dinitrophenyl)amino)hexanoyl)-2(4,4-Difluoro-5,7-Dimethyl-4-Bora-3a,4a-Diaza-s-Indacene-3-Pentanoyl)-1-Hexadecanoyl-sn-Glycero-3 Phosphoethanolamine, Triethylammonium Salt). The homogenates were pre-incubated with the specific NAPE-PLD inhibitor ARN19874 at 3.8 mM [65] (Cayman Chemical, Ann Arbor, MI, USA) for 30 min at room temperature in order to fully erase the enzyme activity as a control. Fluorescence values were measured with excitation at λ = 485–488 nm and emission at λ = 530 nm at 37 °C by means of continuity kinetics at 30-sec intervals for 30 min in an Enspire multimode plate reader (Perkin Elmer, Waltham, MA, USA), as reported in [66]. NAPE-PLD activity was expressed as florescence intensity (arbitrary units, AU) per min per mg of protein.

Question: With `CCCCCc1cc(O)c2c(c1)OC(C)(CCC=C(C)C)C=C2` (stereo not shown) [CBC, cannabichromene] as the compound, how does the “gene expression of NAPE-PLD (in words)” value [1] read?
Answer: Its value is “significantly increased”.

Question: What does the source list for `CCCc1cc(O)c2c(c1)OC(C)(C)[C@@H]1CCC(C)=C[C@@H]21` [THCV, Δ^9-tetrahydrocannabivarin]?
Answer: DAGLβ protein expression (in words) [2]: significantly reduced; Protein Expression DAGLβ [2]: ↓+++; activity at CB1 [3]: CB1 antagonist

Question: Which “endogenous 2-AG content” value [4] does the source give for `CCCCCc1cc(O)c(C/C=C(\C)CCC=C(C)C)c(O)c1` [CBG, cannabigerol] here?
Answer: Its value is “markedly increased”.

Question: What about the “endogenous PEA content” value [5] of the same compound?
Answer: Its value is “markedly increased”.

Question: And the “proliferation of transformed human keratinocytes” value [6]?
Answer: Its value is “inhibit the proliferation”.

Question: With `CCCCCc1cc(O)c(C/C=C(\C)CCC=C(C)C)c(O)c1C(=O)O` [CBGA, cannabigerolic acid] as the compound, how does the “Gene Expression FAAH” value [7] read?
Answer: Its value is “FAAH ↓+++”.

Question: And the “gene expression of FAAH (in words)” value [7]?
Answer: Its value is “significantly reduced”.

Question: What about the “activity of NAPE-PLD” value [8] of the same compound?
Answer: Its value is “significantly increased”.
